Source: patent US20230203060A1 (GENFLEET THERAPEUTICS (SHANGHAI) INC., priority 2020, published 2023)
Like-named read-outs stand apart in the source and are kept apart here.

Tests used:
Type in all cases: cell-based, human
[1] = test system: KRAS G12C mutant MIA PaCa-2 cells; test: Cell proliferation inhibition experiment, 3D spheroid, CellTiter-Glo, MIA PaCa-2; conditions: 3D cell model in 384-well spheroid plate, 5 days, CellTiter-Glo, read-out: MIA-PaCa2 IC50
Text: Raw materials and instruments: MIA PaCa-2 purchased from ATCC; article number: CRL-1420; batch number: 63143594; DMEM purchased from Gibco; article number: 11995-065; batch number: 2186878; FBS purchased from Gibco; article number: 10099-141; batch number: 2109290CP; Horse Serum purchased from Gibco; article number: 16050-122; batch number: 1818976; PS purchased from Gibco; article number: 15140-122; batch number: 2145451; Trypsin-EDTA purchased from Gibco; article number: 25200-072; batch number: 2085552; CellTiter Glo working solution purchased from Promega; article number: G9683; batch number 398478; DMSO purchased from VWR AMRESCO; article number: 0231-500ML; batch number: 18C0656168; 384-well spheroid plate purchased from Corning; article number: 3830; batch number: 27519032; white opaque 384-well plate purchased from Corning; article number: 3570; batch number: 26819023; microplate reader purchased from PerkinElmer; model: Envision MLD2105-0020; equipment number 1050369.
MIA PaCa-2 is a KRAS G12C mutant human pancreatic cancer cell line, cultured in 10% FBS+2.5% Horse Serum DMEM+1% PS culture medium; cells at logarithmic growth stage were taken, digested with trypsin-EDTA, then collected and counted, and 200 MIA PaCa-2 were inoculated in a 384-well spheroid plate, respectively, and cultured overnight to establish a 3D cell model. A 3.16-fold gradient concentration stock solution of 1000× compound was prepared with DMSO, and diluted 100-fold to 10× compound stock solution with culture medium. On the second day after cell inoculation, 10× compound stock solution was added to each cell culture well, with a final concentration of 1× and a DMSO content of 0.1%. DMSO was used as experimental control (control), and culture medium was used as blank control (blank). After 5 days of compound cell culture, 30 μL of CellTiter-Glo working solution was added to each well, mixed well and incubated for 30 minutes. After standing at room temperature for 30 minutes, 40 μL of the mixed solution was transferred to a white opaque 384-well plate, and the luminescence chemiluminescence value was read with a microplate reader. The cell proliferation inhibition rate IR (%)=(RLU control -RLU compound)/(RLU control−RLU blank)×100% was calculated. The gradient dilution concentration of the compound and the corresponding cell proliferation inhibition rate were fitted by XLFit four-parameter method, and the IC50 value was calculated. The inhibitory activity of the compounds prepared in the above embodiments of the present disclosure on KRAS G12C mutant MIA PaCa-2 cells was 0.0001 μM to 0.5 μM; the inhibitory activity of some compounds on KRAS G12C mutant MIA PaCa-2 cells was 0.001 μM to 0.1 μM or 0.001 μM to 0.05 μM.

[2] = test system: A549 cells (KRAS G12S mutant); test: Cell proliferation inhibition experiment, 3D spheroid, CellTiter-Glo, A549; conditions: A549 (KRAS G12S mutant) 3D spheroid, 5 days with compound, CellTiter-Glo, read-out: A549 IC50
Text: Raw materials and instruments: NCI-H358 purchased from ATCC; article number: CRL-5807; batch number: 70010825; A549 purchased from ATCC; article number: CCL-185; batch number: 70007820; RPMI1640 purchased from Gibco; article number: 11875-093; batch number: 2152748; F-12K purchased from Gibco; article number: 21127-022; batch number: 2185853; FBS purchased from Gibco; article number: 10099-141; batch number: 2109290CP; PS purchased from Gibco; article number: 15140-122; batch number: 2145451; Trypsin-EDTApurchased from Gibco; article number: 25200-072; batch number: 2085552; CellTiter Glo working solution purchased from Promega; article number: G9683; batch number: 398478; DMSO purchased from VWR AMRESCO; article number: 0231-500ML; batch number: 18C0656168; 384-well spheroid plate purchased from Corning; article number: 3830; batch number: 27519032; white opaque 384-well plate purchased from Corning; article number: 3570; batch number: 26819023; microplate reader purchased from PerkinElmer; model: Envision MLD2105-0020; equipment number 1050369.
NCI-H358 is a KRAS G12C mutant human non-small cell lung cancer cell line, cultured in 10% FBS RPMI-1640+1% PS culture medium; and A549 is a KRAS G12S mutant human lung adenocarcinoma cell line, cultured in 10% FBS F-12K+1% PS culture medium. Cells at logarithmic growth stage were taken, digested with trypsin-EDTA, then collected and counted. H358 was adjusted to 1.8 E4 cells/mL with 2% FBS RPMI-1640 culture medium, and A549 was adjusted to 8.9 E3 cells/mL with 2% FBS F-12K culture medium; 800 (45 μL) H358 or 400 (45 μL) A549 were inoculated respectively in a 384-well spheroid plate and cultured overnight to establish a 3D cell model. A 3.16-fold gradient concentration stock solution of 1000× compound was prepared with DMSO, and diluted 100-fold to 10× compound stock solution with 2% FBS culture medium. On the second day after cell inoculation, 5 μL of 10× compound stock solution was added to each cell culture well, with a final concentration of 1× and a DMSO content of 0.1%. DMSO was used as experimental control (control), and 2% FBS culture medium was used as blank control (blank). After 5 days of compound cell culture, 25 μL of CellTiter-Glo working solution was added to each well, mixed well at 400 rpm and incubated for 30 minutes. After standing at room temperature for 30 minutes, 40 μL of the mixed solution was transferred to a white opaque 384-well plate, and the luminescence chemiluminescence value was read with a microplate reader. The cell proliferation inhibition rate IR (%)=(RLU control -RLU compound)/(RLU control -RLU blank) x100% was calculated. The gradient dilution concentration of the compound and the corresponding cell proliferation inhibition rate were fitted by Prism 6 four-parameter method, and the IC50 value was calculated. The inhibitory activity of the compounds prepared in the above embodiments of the present disclosure on KRAS G12C mutant NCI-H358 cells was 0.0001 μM to 0.5 μM; the inhibitory activity of some compounds on KRAS G12C mutant NCI-H358 cells was 0.001 μM to 0.1 μM or 0.001 μM to 0.05 μM.

[3] = test system: KRAS G12C mutant NCI-H358 cells; test: Cell proliferation inhibition experiment, 3D spheroid, CellTiter-Glo, NCI-H358; conditions: NCI-H358 (KRAS G12C mutant) 3D spheroid, 5 days with compound, CellTiter-Glo, read-out: H358 IC50
How it was run: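 CellTiter-Glo luminescence after 5 days' compound treatment (3.16-fold series, 0.1% DMSO) of overnight-formed spheroids in 2% FBS medium: H358 seeded at 800 cells/well in RPMI-1640, A549 at 400 cells/well in F-12K. IC50 derived by four-parameter fit of inhibition normalized to DMSO control and blank.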

[4] = Homo sapiens, MIA PaCa-2, 120 h

| Structure (SMILES) | IC50 [1] [nM] | IC50 [2] [nM] | IC50 [3] [nM] | IC50 [1, 4] [nM] | IC50 ([2]; Homo sapiens, A549, 120 h) [nM] | IC50 ([3]; Homo sapiens, NCI-H358, 120 h) [nM] |
| --- | --- | --- | --- | --- | --- | --- |
| C=CC(=O)N1CCN2C(=O)c3c(-c4ccncc4)nc(-c4c(O)cccc4F)c(Cl)c3OC[C@H]2C1 [Z54] |  |  |  | 169 | > 30000 | 124 |
| C=CC(=O)N1CCN2C(=O)c3c(Oc4cccc5c4OC(C)(C)C5)nc(-c4c(O)cccc4F)c(Cl)c3OC[C@H]2C1 [Z42, (6aR)-8-acryloyl-4-chloro-1-((2,2-dimethyl-2,3-dihydrobenzofuran-7-yl)oxy)-3-(2-fluoro-6-hydroxyphenyl)-6,6a,7,8,9,10-hexahydro-12H-pyrazino[2,1-c]pyrido[3,4-f][1,4]oxazepin-12-one] |  |  |  | 87 | 6290 | 37 |
| C=CC(=O)N1CCN2C(=O)c3c(N(C)C4CCOCC4)nc(-c4c(O)cccc4F)c(Cl)c3OC[C@H]2C1 [Z25, (6aR)-8-acryloyl-4-chloro-3-(2-fluoro-6-hydroxyphenyl)-1-(methyl(tetrahydro-2H-pyran-4-yl)amino)-6,6a,7,8,9,10-hexahydro-12H-pyrazino[2,1-c]pyrido[3,4-f][1,4]oxazepin-12-one] |  |  |  | 81 | > 20000 | 58 |
| C=CC(=O)N1CCN2C(=O)c3c(N4CCC5(CCC5)C4)nc(-c4c(O)cccc4F)c(Cl)c3OC[C@H]2C1 [Z35, (6aR)-8-actyloyl-4-chloro-3-(2-fluoro-6-hydroxyphenyl)-1-(6-azaspiro[3.4]octan-6-yl)-6,6a,7,8,9,10-hexahydro-12H-pyrazino[2,1-c]pyrido[3,4-f][1,4]oxazepin-12-one] | 36 | > 5000 | 21 |  |  |  |

The next lines start with the values.

| IC50 [1] [nM] | IC50 [2] [nM] | IC50 [3] [nM] | IC50 [1, 4] [nM] | IC50 ([2]; Homo sapiens, A549, 120 h) [nM] | IC50 ([3]; Homo sapiens, NCI-H358, 120 h) [nM] | Structure (SMILES) |
| --- | --- | --- | --- | --- | --- | --- |
| 27 | > 30000 | 19 |  |  |  | C=CC(=O)N1CCN2C(=O)c3c(N4CCC5(CCOC5)C4)nc(-c4c(O)cccc4F)c(Cl)c3OC[C@H]2C1 (stereo partly drawn) [Z59, (6aR)-8-acryloyl-4-chloro-3-(2-fluoro-6-hydroxyphenyl)-1-(2-oxa-7-azaspiro[4.4]nonan-7-yl)-6,6a,7,8,9,10-hexahydro-12H-pyrazino[2,1-c]pyrido[3,4-f][1,4]oxazepin-12-(6aH)-one] |
|  |  |  | 38 | > 30000 | 51 | C=CC(=O)N1CCN2C(=O)c3c(O[C@H]4CCN(C)C4)nc(-c4c(O)cccc4F)c(Cl)c3OC[C@H]2C1 [Z65, (6aR)-8-acryloyl-4-chloro-3-(2-fluoro-6-hydroxyphenyl)-1-(((S)-1-methylpyrrolidin-3-yl)oxy)-6,6a,7,8,9,10-hexahydro-12H-pyrazino[2,1-c]pyrido[3,4-f][1,4]oxazepin-12-one] |
|  |  |  | 52 | > 10000 | 25 | C=CC(=O)N1CCN2C(=O)c3c(N4CCOCC4(C)C)nc(-c4c(O)cccc4F)c(Cl)c3OC[C@H]2C1 [Z70, (6aR)-8-acryloyl-4-chloro-1-(3,3-dimethylmorpholino)-3-(2-fluoro-6-hydroxyphenyl)-6,6a,7,8,9,10-hexahydro-12H-pyrazino[2,1-c]pyrido[3,4-f][1,4]oxazepin-12-one] |
|  |  |  | 36 | > 5000 | 26 | C=CC(=O)N1CCN2C(=O)c3c(N4CCO[C@H](C)C4)nc(-c4c(O)cccc4F)c(Cl)c3OC[C@H]2C1 [Z24, (6aR)-8-acryloyl-4-chloro-3-(2-fluoro-6-hydroxyphenyl)-1-((R)-2-methylmorpholino)-6,6a,7,8,9,10-hexahydro-12H-pyrazino[2,1-c]pyrido[3,4-f][1,4]oxazepin-12-one] |
|  |  |  | 60 | > 20000 | 46 | C=CC(=O)N1CCN2C(=O)c3c(N4CCC5(COC5)C4)nc(-c4c(O)cccc4F)c(Cl)c3OC[C@H]2C1 [Z45, (6aR)-8-acryloyl-4-chloro-3-(2-fluoro-6-hydroxyphenyl)-1-(2-oxa-6-azaspiro[3.4]octan-6-yl)-6,6a,7,8,9,10-hexahydro-12H-pyrazino[2,1-c]pyrido[3,4-f][1,4]oxazepin-12-one] |
